Experimental findings from patent US7932274B2, “3-indazolyl-4-pyridylisothiazoles” (Eli Lilly and Company, priority 2008, dated 2011) are described below.

pIC50: −log10 of the molar value.

For one series, the target named is T1, human mGluR5 (Homo sapiens, UniProt P41594).
T1 construct: expressed in transfected cells; host or cells: AV-12 cells (ATCC) containing the rat EAAT1 glutamate transporter
As to the kind of experiment: Functional in vitro activity at human mGluR5 receptors (FLIPR calcium assay, antagonism of glutamate EC90 response). The format is cell-based. To be noted: AV-12 cells expressing recombinant human mGluR5a and rat EAAT1, relative IC50, read-out: IC50 measured at mGluR5. An excerpt: Functional in Vitro Activity at Human mGluR5; and mGluR1; Receptors
The activation of G-protein coupled receptors (GPCRS) that are coupled to GTP-binding protein alpha q (Gq proteins) results in a change in intracellular calcium concentration. This functional response can be measured in a kinetic assay using calcium-sensitive dyes and a fluorescent imaging plate reader using a standard technique known as FLIPR (MDS Analytical Technologies, Sunnyvale, Calif.). Stable cell line preparation and assay techniques are adapted from Kingston, A. E., et. al. (1995) Neuropharmacology 34: 887-894. […]
For the functional assays, cells are seeded in growth medium lacking selection antibiotics at a density of 65K per well into 96-well, black/clear bottom, poly-D-lysine coated microplates and incubated for 18-20; hours prior to the experiment. […] The antagonist effects of compounds are quantified in the FLIPR instrument in 10-point dose curves by comparing the peak fluorescent responses to the agonist glutamate in the presence and absence of compound. Specifically, the compound effect is measured as maximal minus minimal peak heights in relative fluorescent units corrected for basal fluorescence as measured in the absence of glutamate. […]

The test system of series [1] is stress-induced hyperthermia in rats. As to the kind of experiment: Attenuation of stress-induced hyperthermia in rats. The format is in vivo, rat. The settings on record: male Fischer F-344 rats, p.o., 60 min pretreatment, T2-T1 rectal temperature. The text has this:
Attenuation of Stress-Induced Hyperthermia in Rats
In many anxiety disorders, hyperthermia occurs as part of the pathology and is considered a symptom of the disease. Compounds which attenuate stress-induced hyperthermia in animals are believed to be useful in treating anxiety disorders in humans.
The conventional and minimally-invasive method for analyzing stress-induced hyperthermia is by measuring body temperature, and stress-induced increases in body temperature, via rectal thermometer. Male Fischer F-344; rats (Harlan, Indianapolis, Ind., USA) weighing between 275-350; g are tested. All animals are individually-housed with food and automated water available ad libitum, and maintained on a 12; h light/dark cycle (lights on at 06:00). Animals are fasted for approximately 12-18; hours before the experiment, which is conducted during the light phase. […]
After the pretreatment period, rats are taken individually to a brightly lit adjacent room where baseline body temperatures are determined by insertion of a rectal probe lubricated with mineral oil. Body temperature is assessed using a PHYSITEMP BAT-12® Microprobe Thermometer with a PHYSITEMP RET-2® rat rectal probe (Physitemp Instruments Inc., Clifton, N.J., USA). […] Ten minutes later a second body temperature measurement is recorded (T2). […]

T1 sequence (P41594 21-1180 isoform P41594-2 limits assumed): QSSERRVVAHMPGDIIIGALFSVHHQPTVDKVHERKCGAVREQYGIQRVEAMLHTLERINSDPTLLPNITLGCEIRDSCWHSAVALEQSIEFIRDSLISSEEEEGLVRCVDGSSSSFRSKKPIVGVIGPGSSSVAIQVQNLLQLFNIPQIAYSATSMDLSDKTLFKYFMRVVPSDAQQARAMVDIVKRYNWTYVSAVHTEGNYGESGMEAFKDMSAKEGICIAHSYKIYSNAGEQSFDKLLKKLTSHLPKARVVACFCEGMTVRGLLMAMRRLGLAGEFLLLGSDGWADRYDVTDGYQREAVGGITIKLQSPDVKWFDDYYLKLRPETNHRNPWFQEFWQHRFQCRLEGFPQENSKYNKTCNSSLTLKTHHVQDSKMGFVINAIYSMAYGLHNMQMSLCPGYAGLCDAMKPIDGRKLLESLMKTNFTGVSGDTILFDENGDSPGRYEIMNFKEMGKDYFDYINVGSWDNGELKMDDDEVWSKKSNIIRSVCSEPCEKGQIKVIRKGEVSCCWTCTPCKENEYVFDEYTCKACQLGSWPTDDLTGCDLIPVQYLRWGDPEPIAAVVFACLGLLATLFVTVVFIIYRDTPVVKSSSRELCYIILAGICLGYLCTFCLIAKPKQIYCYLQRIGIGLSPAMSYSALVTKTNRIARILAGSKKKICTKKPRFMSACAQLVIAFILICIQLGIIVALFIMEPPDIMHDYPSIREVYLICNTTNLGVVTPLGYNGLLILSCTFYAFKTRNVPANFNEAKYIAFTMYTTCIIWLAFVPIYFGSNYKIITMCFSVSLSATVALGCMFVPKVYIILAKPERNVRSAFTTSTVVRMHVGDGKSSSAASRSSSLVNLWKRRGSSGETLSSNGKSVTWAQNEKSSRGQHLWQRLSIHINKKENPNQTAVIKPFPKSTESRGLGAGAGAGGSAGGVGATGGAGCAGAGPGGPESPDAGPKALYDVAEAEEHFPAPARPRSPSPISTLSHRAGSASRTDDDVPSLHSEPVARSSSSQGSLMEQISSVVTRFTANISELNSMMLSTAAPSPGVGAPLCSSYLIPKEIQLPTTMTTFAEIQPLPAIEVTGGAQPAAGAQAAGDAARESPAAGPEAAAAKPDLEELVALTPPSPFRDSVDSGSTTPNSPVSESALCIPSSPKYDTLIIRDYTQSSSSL

On to `CCc1cccc(-c2c(-c3ccc4nn(C)cc4c3)nsc2NC(=O)[C@@H]2C[C@H]2C)n1.Cl` [Example 2, (1R,2R)-2-methyl-cyclopropanecarboxylic acid [4-(6-ethyl-pyridin-2-yl)-3-(2-methyl-2H-indazol-5-yl)-isothiazol-5-yl]-amide hydrochloride], for which, on human mGluR5, the pIC50 (commonly the IC50 on a negative log10 scale, so that one unit is a factor of ten) is 8.02. In addition, in series [1], the “T35 dose (dose producing a 35% reduction in stress-induced hyperthermic response relative to vehicle)” value is recorded as 3.0 mg/kg.
As for `CC(C)c1cccc(-c2c(-c3ccc4nn(C)cc4c3)nsc2NC(=O)[C@@H]2C[C@H]2C)n1` [Example 23, (1R,2R)-2-methyl-cyclopropanecarboxylic acid [4-(6-isopropyl-pyridin-2-yl)-3-(2-methyl-2H-indazol-5-yl)-isothiazol-5-yl]-amide], the melting point (usually the temperature of the solid-liquid transition) is 142 to 144 °C.
As to `CCc1cccc(-c2c(-c3ccc4nn(C)cc4c3)nsc2NC(=O)[C@@H]2C[C@H]2C)n1` [Example 22, (1R,2R)-2-methyl-cyclopropanecarboxylic acid [4-(6-ethyl-pyridin-2-yl)-3-(2-methyl-2H-indazol-5-yl)-isothiazol-5-yl]-amide], the melting point was 159.4 °C.
